Tests used:
[1] = Plasma Concentration after 90 min of oral administration to mice; type: ADME, organism-based; conditions: mouse
[2] = Plasma Concentration after 120 min of oral administration to mice; type: ADME, organism-based; conditions: mouse
[3] = Compound was tested in vivo for antiviral activity (C120/ED50) against HIV Protease.; type: functional
[4] = target: Human immunodeficiency virus type 1 protease (Human immunodeficiency virus 1) (UniProt Q72874); assay: In vivo antiviral activity (IC50) against HIV-1 protease.; type: organism-based
[5] = Plasma Concentration after 30 min of oral administration to mice; type: ADME, organism-based; conditions: mouse
[6] = target: Human immunodeficiency virus type 1 protease (Human immunodeficiency virus 1) (UniProt Q72874); assay: In vivo for antiviral activity (ED90) against HIV-1 protease.; type: organism-based
[7] = tested on: Mus musculus (mouse); assay: Plasma Concentration after 60 min of oral administration to mice

| concentration at 1.5 h [1] | concentration at 2 h [2] | ED50 [4] | concentration at 0.5 h [5] | ED90 [6] | concentration at 1 h [7] | Structure (SMILES) | C120/ED50 [3] |
| --- | --- | --- | --- | --- | --- | --- | --- |
| 1200 nM | 1400 nM | 72 nM | 3200 nM | 1000 nM | 400 nM | CCOC(=O)NC(C(=O)N[C@@H](Cc1ccccc1)[C@H](O)CN(CC1CCCCC1)NC(=O)C(NC(=O)OC)C(C)C)C(C)C (some centres undefined) | 19 |
| 7800 nM | 8700 nM | 55 nM | 6700 nM | 1000 nM | 6700 nM | CCOC(=O)NC(C(=O)N[C@@H](Cc1ccccc1)[C@H](O)CN(CC1CCCCC1)NC(=O)C(NC(=O)OCC)C(C)C)C(C)C (some centres undefined) | 158 |
| – | – | 9.4 nM | – | 30 nM | – | CCOC(=O)NC(C(=O)NN(CC1CCCCC1)C[C@H](O)[C@H](Cc1ccccc1)NC(=O)[C@H](CC(N)=O)NC(=O)c1ccc2ccccc2n1)C(C)C (some centres undefined) | – |
| < 500 nM | < 500 nM | 14 nM | < 500 nM | 100 nM | < 500 nM | COCCOC(=O)NC(C(=O)NC(Cc1ccccc1)C(O)CN(CC1CCCCC1)NC(=O)C(NC(=O)OC)C(C)C)C(C)C (centres undefined) | – |
| 900 nM | 1000 nM | 83 nM | 800 nM | 1000 nM | 1200 nM | C=CCOC(=O)NC(C(=O)N[C@@H](Cc1ccccc1)[C@H](O)CN(CC1CCCCC1)NC(=O)C(NC(=O)OCC=C)C(C)C)C(C)C (some centres undefined) | 12 |
| 5800 nM | 6000 nM | 29 nM | 3800 nM | 100 nM | 2200 nM | CCOC(=O)NC(C(=O)NN(CC1CCCCC1)C[C@@H](O)[C@H](Cc1ccccc1)NC(=O)C(NC(=O)OC)C(C)C)C(C)C (some centres undefined) | 207 |
| – | – | 150 nM | – | 1000 nM | – | COC(=O)N[C@H](C(=O)N[C@@H](Cc1ccccc1)C(O)CN(Cc1ccc(O)cc1)NC(=O)[C@@H](NC(=O)OC)C(C)C)C(C)C (some centres undefined) | – |
| – | – | 15 nM | – | 30 nM | – | COc1ccc(CN(C[C@H](O)[C@H](Cc2ccccc2)NC(=O)[C@H](CC(N)=O)NC(=O)c2ccc3ccccc3n2)NC(=O)C(NC(=O)OCc2ccccc2)C(C)C)cc1 (some centres undefined) | – |
| – | – | 68 nM | – | 1000 nM | – | COC(=O)N[C@H](C(=O)N[C@@H](Cc1ccccc1)C(O)CN(Cc1ccc(C#N)cc1)NC(=O)[C@@H](NC(=O)OC)C(C)C)C(C)C (some centres undefined) | – |
| < 200 nM | < 200 nM | 6.2 nM | < 200 nM | 30 nM | < 200 nM | COC(=O)N[C@H](C(=O)N[C@@H](Cc1ccccc1)C(O)CN(Cc1ccc(C)cc1)NC(=O)[C@@H](NC(=O)OC)C(C)C)C(C)C (some centres undefined) | – |
| – | – | 12 nM | – | 30 nM | – | CC(C)CN(C[C@H](O)[C@H](Cc1ccccc1)NC(=O)[C@H](CC(N)=O)NC(=O)c1ccc2ccccc2n1)NC(=O)C(NC(=O)OCc1ccccc1)C(C)C (some centres undefined) | – |
| – | – | 63 nM | – | 300 nM | – | COC(=O)NC(C(=O)NN(CC(C)C)C[C@H](O)[C@H](Cc1ccccc1)NC(=O)[C@H](CC(N)=O)NC(=O)c1ccc2ccccc2n1)C(C)C (some centres undefined) | – |
| – | – | 4.5 nM | – | 10 nM | – | CC(C)(C)NC(=O)[C@@H]1C[C@@H]2CCCC[C@@H]2CN1C[C@@H](O)[C@H](Cc1ccccc1)NC(=O)[C@H](CC(N)=O)NC(=O)c1ccc2ccccc2n1 | – |
| – | – | 28 nM | – | 100 nM | – | COC(=O)N[C@H](C(=O)N[C@@H](Cc1ccccc1)C(O)CN(Cc1ccc(OC)c(OC)c1OC)NC(=O)[C@@H](NC(=O)OC)C(C)C)C(C)C (some centres undefined) | – |
| – | – | 49 nM | – | 1000 nM | – | COC(=O)N[C@H](C(=O)N[C@@H](Cc1ccccc1)C(O)CN(Cc1ccc(F)cc1)NC(=O)[C@@H](NC(=O)OC)C(C)C)C(C)C (some centres undefined) | – |
| – | – | 118 nM | – | 1000 nM | – | COC(=O)NC(C(=O)NN(Cc1ccc(OC)cc1)C[C@H](O)[C@H](Cc1ccccc1)NC(=O)[C@H](CC(N)=O)NC(=O)c1ccc2ccccc2n1)C(C)C (some centres undefined) | – |
| < 200 nM | < 200 nM | 9 nM | < 200 nM | 30 nM | – | COC(=O)N[C@H](C(=O)N[C@@H](Cc1ccccc1)C(O)CN(Cc1ccc(OC)cc1)NC(=O)[C@@H](NC(=O)OC)C(C)C)C(C)C (some centres undefined) | – |
| – | – | 41 nM | – | 10000 nM | – | COCCOCCOC(=O)NC(C(=O)N[C@@H](Cc1ccccc1)[C@H](O)CN(CC1CCCCC1)NC(=O)C(NC(=O)OCCOCCOC)C(C)C)C(C)C (some centres undefined) | – |
| – | – | 17 nM | – | 100 nM | – | COC(=O)N[C@H](C(=O)N[C@@H](Cc1ccccc1)C(O)CN(Cc1ccc(C(F)(F)F)cc1)NC(=O)[C@@H](NC(=O)OC)C(C)C)C(C)C (some centres undefined) | – |
| – | – | 300 nM | – | 1000 nM | – | COC(=O)N[C@H](C(=O)N[C@@H](Cc1ccccc1)[C@H](O)CN(CC1CCCCC1)NC(=O)[C@@H](NC(C)=O)C(C)C)C(C)C | – |
| 800 nM | 1100 nM | 9.8 nM | 300 nM | 30 nM | 200 nM | CC(C)C(NC(=O)OCc1ccccc1)C(=O)NN(CC1CCCCC1)C[C@H](O)[C@H](Cc1ccccc1)NC(=O)[C@H](CC(N)=O)NC(=O)c1ccc2ccccc2n1 (some centres undefined) | 73 |
| – | – | 23 nM | – | 1000 nM | – | COC(=O)N[C@H](C(=O)N[C@@H](Cc1ccccc1)C(O)CN(CC(C)C)NC(=O)[C@@H](NC(=O)OC)C(C)C)C(C)C (some centres undefined) | – |
| – | – | 18 nM | – | 100 nM | – | COC(=O)NC(C(=O)NN(CC1CCCCC1)C[C@H](O)[C@H](Cc1ccccc1)NC(=O)[C@H](CC(N)=O)NC(=O)c1ccc2ccccc2n1)C(C)C (some centres undefined) | – |
| – | – | 18 nM | – | 100 nM | – | COC(=O)N[C@H](C(=O)N[C@@H](Cc1ccccc1)C(O)CN(CC1CCCCC1)NC(=O)[C@@H](NC(=O)OC)C(C)C)C(C)C (some centres undefined) | – |
| 1000 nM | 1500 nM | 15 nM | 1000 nM | 100 nM | 2200 nM | CCOC(=O)NC(C(=O)N[C@@H](Cc1ccccc1)[C@H](O)CN(CC1CCCCC1)NC(=O)C(NC(=O)OCCOC)C(C)C)C(C)C (some centres undefined) | 100 |
| – | – | 17 nM | – | 100 nM | – | COC(=O)N[C@H](C(=O)N[C@@H](Cc1ccccc1)C(O)CN(Cc1cccs1)NC(=O)[C@@H](NC(=O)OC)C(C)C)C(C)C (some centres undefined) | – |
| 400 nM | 300 nM | 2.7 nM | < 200 nM | 30 nM | 600 nM | COC(=O)N[C@H](C(=O)N[C@@H](Cc1ccccc1)C(O)CN(CCC(C)C)NC(=O)[C@@H](NC(=O)OC)C(C)C)C(C)C (some centres undefined) | 111 |
| < 200 nM | < 200 nM | 24 nM | < 200 nM | 100 nM | < 200 nM | CCOC(=O)NC(C(=O)NN(CC1CCCCC1)C[C@@H](O)[C@H](Cc1ccccc1)NC(=O)C(NC(=O)OCCOC)C(C)C)C(C)C (some centres undefined) | – |
| < 500 nM | < 500 nM | 79 nM | 2700 nM | 300 nM | 1100 nM | COCCOC(=O)NC(C(=O)N[C@@H](Cc1ccccc1)[C@H](O)CN(CC1CCCCC1)NC(=O)C(NC(=O)OCCOC)C(C)C)C(C)C (some centres undefined) | – |
| 3000 nM | 3100 nM | 28 nM | 1000 nM | 100 nM | 2800 nM | COCCOC(=O)NC(C(=O)NN(CC1CCCCC1)C[C@@H](O)[C@H](Cc1ccccc1)NC(=O)C(NC(=O)OC)C(C)C)C(C)C (some centres undefined) | 111 |

From ChEMBL document CHEMBL1129270, “Aza-peptide analogs as potent human immunodeficiency virus type-1 protease inhibitors with oral bioavailability” (J Med Chem, 1996)
